In ChEMBL document CHEMBL2074267, “Dexamethasone modulation of multidrug transporters in normal tissues” (FEBS Lett, 1999):

How the values were obtained:
[1] = target: T1, ATP-binding cassette sub-family C member 2 (Rattus norvegicus, UniProt Q63120); experiment: TP_TRANSPORTER: Western in vivo, liver of SD rat; format: functional, organism-based, Sprague-Dawley
[2] = target: Multidrug resistance protein 1a (Rattus norvegicus) (UniProt Q6PSM0); experiment: (§1) TP_TRANSPORTER: Western in vivo, kidney of SD rat; format: functional, organism-based; conditions: Sprague-Dawley
[3] = target: T1, ATP-binding cassette sub-family C member 2; experiment: as §1; format: functional, organism-based, Sprague-Dawley

T1 sequence (Q63120 whole entry): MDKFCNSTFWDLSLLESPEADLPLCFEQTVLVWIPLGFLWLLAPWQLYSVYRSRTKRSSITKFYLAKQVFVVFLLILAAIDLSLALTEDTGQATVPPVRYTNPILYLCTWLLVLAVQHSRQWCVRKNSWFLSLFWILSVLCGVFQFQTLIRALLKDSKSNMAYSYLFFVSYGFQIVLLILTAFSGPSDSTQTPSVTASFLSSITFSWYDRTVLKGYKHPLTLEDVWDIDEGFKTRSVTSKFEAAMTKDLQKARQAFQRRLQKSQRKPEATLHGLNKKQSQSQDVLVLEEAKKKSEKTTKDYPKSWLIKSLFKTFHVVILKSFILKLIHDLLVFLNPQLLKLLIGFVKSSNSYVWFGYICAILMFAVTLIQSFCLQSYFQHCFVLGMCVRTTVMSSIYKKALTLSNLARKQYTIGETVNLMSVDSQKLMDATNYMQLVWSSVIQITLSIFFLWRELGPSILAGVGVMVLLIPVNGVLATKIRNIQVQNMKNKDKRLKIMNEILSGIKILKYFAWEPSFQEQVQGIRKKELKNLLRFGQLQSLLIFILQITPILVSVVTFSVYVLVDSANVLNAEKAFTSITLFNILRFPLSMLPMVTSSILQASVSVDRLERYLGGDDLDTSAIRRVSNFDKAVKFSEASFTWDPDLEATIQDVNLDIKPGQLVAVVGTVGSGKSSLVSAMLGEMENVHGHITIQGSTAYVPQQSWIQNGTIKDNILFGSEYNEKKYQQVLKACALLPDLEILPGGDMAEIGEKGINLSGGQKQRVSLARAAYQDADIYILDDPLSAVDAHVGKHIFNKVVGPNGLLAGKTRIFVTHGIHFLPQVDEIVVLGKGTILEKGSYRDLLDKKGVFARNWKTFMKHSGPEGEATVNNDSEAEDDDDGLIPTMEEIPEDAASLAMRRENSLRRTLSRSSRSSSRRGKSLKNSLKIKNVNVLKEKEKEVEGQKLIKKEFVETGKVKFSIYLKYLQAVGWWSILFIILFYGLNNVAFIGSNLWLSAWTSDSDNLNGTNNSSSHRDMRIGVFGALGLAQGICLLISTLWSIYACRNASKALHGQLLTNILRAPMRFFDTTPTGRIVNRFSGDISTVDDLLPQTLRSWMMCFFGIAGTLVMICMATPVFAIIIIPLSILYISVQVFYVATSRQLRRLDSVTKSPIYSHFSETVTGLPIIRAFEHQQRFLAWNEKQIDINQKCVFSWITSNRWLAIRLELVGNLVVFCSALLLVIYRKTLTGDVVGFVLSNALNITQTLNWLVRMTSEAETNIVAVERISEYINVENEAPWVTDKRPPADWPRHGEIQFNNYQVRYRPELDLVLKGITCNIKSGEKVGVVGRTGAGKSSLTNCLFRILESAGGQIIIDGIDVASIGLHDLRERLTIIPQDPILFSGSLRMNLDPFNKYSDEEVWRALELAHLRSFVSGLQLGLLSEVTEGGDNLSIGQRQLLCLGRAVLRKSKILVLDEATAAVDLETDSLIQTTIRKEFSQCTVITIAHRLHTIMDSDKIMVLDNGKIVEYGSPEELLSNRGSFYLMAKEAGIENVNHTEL
Multidrug resistance protein 1a (Rattus norvegicus), sequence (Q6PSM0 as listed by the source): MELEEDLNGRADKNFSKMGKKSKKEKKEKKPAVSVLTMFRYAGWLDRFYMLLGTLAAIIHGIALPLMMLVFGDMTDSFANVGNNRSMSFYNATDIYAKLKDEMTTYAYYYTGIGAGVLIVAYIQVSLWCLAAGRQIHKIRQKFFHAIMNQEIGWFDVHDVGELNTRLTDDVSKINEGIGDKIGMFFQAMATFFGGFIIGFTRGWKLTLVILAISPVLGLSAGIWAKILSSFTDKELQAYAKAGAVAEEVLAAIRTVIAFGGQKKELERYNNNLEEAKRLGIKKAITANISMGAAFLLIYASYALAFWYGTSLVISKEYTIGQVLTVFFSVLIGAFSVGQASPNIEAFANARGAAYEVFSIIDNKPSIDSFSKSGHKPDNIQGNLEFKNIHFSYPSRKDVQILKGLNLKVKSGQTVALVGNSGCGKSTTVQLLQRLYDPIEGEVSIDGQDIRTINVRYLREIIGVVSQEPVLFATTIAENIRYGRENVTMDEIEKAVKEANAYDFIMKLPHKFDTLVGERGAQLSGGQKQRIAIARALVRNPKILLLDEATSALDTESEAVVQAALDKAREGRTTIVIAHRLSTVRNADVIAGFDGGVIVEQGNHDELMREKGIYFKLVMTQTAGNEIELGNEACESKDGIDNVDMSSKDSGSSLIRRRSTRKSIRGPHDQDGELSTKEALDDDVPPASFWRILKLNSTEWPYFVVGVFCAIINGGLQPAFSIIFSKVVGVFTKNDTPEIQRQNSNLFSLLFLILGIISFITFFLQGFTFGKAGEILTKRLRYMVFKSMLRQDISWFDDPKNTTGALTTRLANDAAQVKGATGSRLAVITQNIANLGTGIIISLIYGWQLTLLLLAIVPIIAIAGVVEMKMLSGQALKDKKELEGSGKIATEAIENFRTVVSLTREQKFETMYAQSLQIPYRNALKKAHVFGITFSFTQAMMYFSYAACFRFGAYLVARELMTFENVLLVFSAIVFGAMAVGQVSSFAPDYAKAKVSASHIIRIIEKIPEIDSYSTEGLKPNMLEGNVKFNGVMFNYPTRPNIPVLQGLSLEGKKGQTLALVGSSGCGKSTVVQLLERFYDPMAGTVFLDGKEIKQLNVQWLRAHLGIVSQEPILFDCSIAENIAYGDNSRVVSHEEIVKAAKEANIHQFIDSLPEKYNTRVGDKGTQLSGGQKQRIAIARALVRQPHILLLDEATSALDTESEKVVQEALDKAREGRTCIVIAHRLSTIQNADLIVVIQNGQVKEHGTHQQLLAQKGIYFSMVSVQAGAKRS

Activity [1]: inducer [+]
Activity [2]: inducer [Decrease]
Activity [3]: inducer [+]
SMILES: C[C@@H]1C[C@H]2[C@@H]3CCC4=CC(=O)C=C[C@]4(C)[C@@]3(F)[C@@H](O)C[C@]2(C)[C@@]1(O)C(=O)CO [DEXAMETHASONE]
